Source: patent US7892350B2, “Sacrificial agents for fly ash concrete” (Boral Material Technologies Inc., priority 2003, dated 2011)
Read-outs that look alike come from different tables or passages of the source.

Key:
[1] = Second sacrificial agent testing protocol: paste air measurements with DDBS (0.0125 wt %) and rating; settings: for B1 + 0.0125% DDBS + 0.05% SA (air entrainment) / B1 + 0.0125% DDBS + 0.1% SA (air entrainment): B1 FA/cement paste; for PCA + 0.1% SA (level of air entrainment by the candidate sacrificial agent): Portland cement paste (PCA); for SA Rating (0-4): sacrificial agent overall rating index; as to Overall performance rating (second protocol rating): key: 0: Fail; 1: Poor; 2: Good; 3: Preferred; 4: Most preferred; as to SA Rating (0-4): key: 0: Fail; 1: Poor; 2: Good; 3: Preferred; 4: Most preferred
Summary of the method: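 Air entrainment was measured in cement pastes of fixed composition and fluidity. The candidate agent was tested alone at 0.1 wt % in a cement-only paste. It was also tested at 0.05 and 0.1 wt % in a fly ash (B1)-cement paste with DDBS, where air recovery was calculated against the same paste without agent.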

[2] = Hansch, C. et al. (1995), cited from earlier work
[3] = Air entrainment in mortars (ASTM C185-88); settings: for decrease of variability (RSD values): fly ash mortars, Air 30 combined with the SA versus Air 30 alone
Procedure: Air entrainment were measured in mortars containing portland cement only (control), or a combination of portland cement and fly ash in the ratio 70:30;
The mix compositions are given in the Table below and the measurements were performed according to standard protocols described in ASTM C185-88

[4] = 30:70 fly ash B1 (LOI 5.01%):cement mortar, 0.002 wt % Air 30 alone or +0.05 wt % SA
[5] = 30:70 fly ash B1 (LOI 5.01%):cement mortar, 0.005 wt % Air 40 alone or +0.05 wt % SA
[6] = 30:70 fly ash C1 (LOI 0.70%):cement mortar, 0.002 wt % Air 30 alone or +0.05 wt % SA
[7] = 30:70 fly ash C1 (LOI 0.70%):cement mortar, 0.005 wt % Air 40 alone or +0.05 wt % SA
[8] = 30:70 fly ash C2 (LOI 3.04%):cement mortar, 0.002 wt % Air 30 alone or +0.05 wt % SA
[9] = 30:70 fly ash C2 (LOI 3.04%):cement mortar, 0.005 wt % Air 40 alone or +0.05 wt % SA
[10] = 30:70 fly ash C3 (LOI 2.54%):cement mortar, 0.002 wt % Air 30 alone or +0.05 wt % SA
[11] = 30:70 fly ash C3 (LOI 2.54%):cement mortar, 0.005 wt % Air 40 alone or +0.05 wt % SA
[12] = 30:70 fly ash D (LOI […]):cement mortar, 0.002 wt % Air 30 alone or +0.05 wt % SA
[13] = 30:70 fly ash D (LOI […]):cement mortar, 0.005 wt % Air 40 alone or +0.05 wt % SA
[14] = 30:70 fly ash H1 (LOI 8.45%):cement mortar, 0.002 wt % Air 30 alone or +0.05 wt % SA
[15] = 30:70 fly ash H1 (LOI 8.45%):cement mortar, 0.005 wt % Air 40 alone or +0.05 wt % SA
[16] = 30:70 fly ash M1 (LOI […]):cement mortar, 0.002 wt % Air 30 alone or +0.05 wt % SA
[17] = 30:70 fly ash M1 (LOI […]):cement mortar, 0.005 wt % Air 40 alone or +0.05 wt % SA
[18] = 30:70 fly ash M2 (LOI 8.78%):cement mortar, 0.002 wt % Air 30 alone or +0.05 wt % SA
[19] = 30:70 fly ash M2 (LOI 8.78%):cement mortar, 0.005 wt % Air 40 alone or +0.05 wt % SA
[20] = 30:70 fly ash M3 (LOI 3.15%):cement mortar, 0.002 wt % Air 30 alone or +0.05 wt % SA
[21] = 30:70 fly ash M3 (LOI 3.15%):cement mortar, 0.005 wt % Air 40 alone or +0.05 wt % SA
[22] = 30:70 fly ash R (LOI 0.17%):cement mortar, 0.002 wt % Air 30 alone or +0.05 wt % SA
[23] = 30:70 fly ash R (LOI 0.17%):cement mortar, 0.005 wt % Air 40 alone or +0.05 wt % SA
[24] = PCA cement mortar, no fly ash, 0.0017 wt % Air 30 alone or +0.05 wt % SA
[25] = PCA cement mortar, no fly ash, 0.004 wt % Air 40 alone or +0.05 wt % SA
[26] = over the fly ash mortars of Table 12, 0.002 wt % Air 30 alone or +0.05 wt % SA
[27] = over the fly ash mortars of Table 13, 0.005 wt % Air 40 alone or +0.05 wt % SA

SMILES: OCCOc1ccccc1 [EGPE, Ethylene glycol phenyl ether]
- Overall performance rating (second protocol rating) [1]: 4
- B1 + 0.0125% DDBS + 0.05% SA (air entrainment) [1]: 6.9
- B1 + 0.0125% DDBS + 0.1% SA (air entrainment) [1]: 8.1
- PCA + 0.1% SA (level of air entrainment by the candidate sacrificial agent) [1]: 1.5
- SA Rating (0-4) [1]: 4
- Experimental LogKow [2]: 1.16
- Experimental LogKow ([2]; listed as 2-Phenoxyethanol): Experimental LogKow: 1.16
- Air entrainment [3, 4]: 3.6
- Air entrainment ([3]; 30:70 fly ash B1 (LOI 5.01%):cement mortar, 0.005 wt % Air 40 +0.1 wt % EGPE): 9.3
- Air entrainment [3, 5]: 5.4
- Air entrainment [3, 6]: 4.7
- Air entrainment ([3]; 30:70 fly ash C1 (LOI 0.70%):cement mortar, 0.005 wt % Air 40 +0.1 wt % EGPE): 12.6
- Air entrainment [3, 7]: 6.6
- Air entrainment [3, 8]: 6.9
- Air entrainment ([3]; 30:70 fly ash C2 (LOI 3.04%):cement mortar, 0.005 wt % Air 40 +0.1 wt % EGPE): 12.4
- Air entrainment [3, 9]: 8.8
- Air entrainment [3, 10]: 5.9
- Air entrainment ([3]; 30:70 fly ash C3 (LOI 2.54%):cement mortar, 0.005 wt % Air 40 +0.1 wt % EGPE): 9.8
- Air entrainment [3, 11]: 8.0
- Air entrainment [3, 12]: 14.9
- Air entrainment ([3]; 30:70 fly ash D (LOI […]):cement mortar, 0.005 wt % Air 40 +0.1 wt % EGPE): 13.2
- Air entrainment [3, 13]: 12.8
- Air entrainment [3, 14]: 3.1
- Air entrainment ([3]; 30:70 fly ash H1 (LOI 8.45%):cement mortar, 0.005 wt % Air 40 +0.1 wt % EGPE): 5.7
- Air entrainment [3, 15]: 3.1
- Air entrainment [3, 16]: 5.4
- Air entrainment ([3]; 30:70 fly ash M1 (LOI […]):cement mortar, 0.005 wt % Air 40 +0.1 wt % EGPE): 12.7
- Air entrainment [3, 17]: 8.0
- Air entrainment [3, 18]: 2.8
- Air entrainment ([3]; 30:70 fly ash M2 (LOI 8.78%):cement mortar, 0.005 wt % Air 40 +0.1 wt % EGPE): 6.7
- Air entrainment [3, 19]: 4.9
- Air entrainment [3, 20]: 7.6
- Air entrainment ([3]; 30:70 fly ash M3 (LOI 3.15%):cement mortar, 0.005 wt % Air 40 +0.1 wt % EGPE): 18.3
- Air entrainment [3, 21]: 10.2
- Air entrainment [3, 22]: 13.5
- Air entrainment ([3]; 30:70 fly ash R (LOI 0.17%):cement mortar, 0.005 wt % Air 40 +0.1 wt % EGPE): 15.2
- Air entrainment [3, 23]: 13.5
- Air entrainment [3, 24]: 14.0
- Air entrainment ([3]; PCA cement mortar, no fly ash, 0.004 wt % Air 40 +0.1 wt % EGPE): 16.2
- Air entrainment [3, 25]: 14.9
- decrease of variability (RSD values) [3]: approximately 50%
- Average of air entrained [3, 26]: 6.8%
- Average of air entrained ([3]; over the fly ash mortars of Table 13, 0.005 wt % Air 40 +0.1 wt % EGPE): 12%
- Average of air entrained [3, 27]: 8.1%

SMILES: O=S(=O)([O-])c1ccc2ccccc2c1.[Na+] [NS, Sodium 2-Naphthalene sulfonate]
- Overall performance rating (second protocol rating) [1]: 3
- B1 + 0.0125% DDBS + 0.05% SA (air entrainment) [1]: 4.4
- B1 + 0.0125% DDBS + 0.1% SA (air entrainment) [1]: 5.3
- PCA + 0.1% SA (level of air entrainment by the candidate sacrificial agent) [1]: 1.0
- SA Rating (0-4) [1]: 3
- Air entrainment [3, 4]: 4.0
- Air entrainment [3, 5]: 5.6
- Air entrainment [3, 6]: 4.3
- Air entrainment [3, 7]: 7.2
- Air entrainment [3, 8]: 5.9
- Air entrainment [3, 9]: 7.5
- Air entrainment [3, 10]: 4.8
- Air entrainment [3, 11]: 7.8
- Air entrainment [3, 12]: 11.4
- Air entrainment [3, 13]: 12.6
- Air entrainment [3, 14]: 2.7
- Air entrainment [3, 15]: 3.0
- Air entrainment [3, 16]: 5.8
- Air entrainment [3, 17]: 8.2
- Air entrainment [3, 18]: 2.8
- Air entrainment [3, 19]: 5.0
- Air entrainment [3, 20]: 6.9
- Air entrainment [3, 21]: 10.0
- Air entrainment [3, 22]: 12.0
- Air entrainment [3, 23]: 13.7
- Air entrainment [3, 24]: 13.4
- Air entrainment [3, 25]: 14.8
- decrease of variability (RSD values) [3]: approximately 50%
- Average of air entrained [3, 26]: 6.1%
- Average of air entrained [3, 27]: 8.0%
